Results taken from patent US20100113504A1, “AMIDE COMPOUNDS AND THEIR USE AS ANTITUMOR AGENTS” (SIGMA-TAU INDUSTRIE FARMACEUTICHE RIUNITE S.P.A., priority 2007, published 2010).
Where a name gives a salt, the structure may show the parent alone. Read-outs that look alike come from different tables or passages of the source.

Tests used:
Format in all cases: cell-based
[1] = system: NCI-H460 non-small cell carcinoma cells; assay: Cytotoxicity (sulphorodamine B) on NCI-H460 tumor cells; conditions: 24 h treatment, then 48 h in drug-free medium, read-out: IC50 ± SD, NCI-H460
Experimental: (§1) Tumor cells were seeded in 96-well tissue culture plates at approximately 10% confluence and were allowed to attach and recover for at least 24 h. […] The plates were incubated for 24 h at 37° C. At the end of the treatment, for NB4 tumor cells in suspension, the procedure was performed as follows: medium culture was removed by centrifugation of the plates at 1600×g for 10 min and the surnatant was removed. 250 μl PBS were added, then the plates were centrifuged at 1600×g for 10 min, the surnatant was removed. […] The plates were centrifuged again at 1600×g for 10 min, the medium culture was removed and 200 μl PBS and 50 μl of cold 80% TCA were added. The plates were incubated on ice for at least 1 h. TCA was removed, the plates were washed 3 times for immersion in distilled-water and dried before on paper, then in a thermostater at 40° C. Subsequently 200 μl of 0.4% sulphorodamine B in 1% acetic acid were added. The plates were incubated at room temperature for other 30 min. Sulphorodamine B was removed, the plates were washed for immersion in 1% acetic acid for 3 times, then they were washed and dried on paper. 200 μl Tris 10 mM were added, the plates were kept under stirring for 20 min. The survival cell was determined as optical density by a Multiskan spectrofluorimeter at 540 nm. […] Also the last day of the assay, the surnatant was removed without centrifugation.
(§2) The amount of cells killed was calculated as the percentage decrease in sulphorodamine B binding compared with control cultures.

[2] = system: HCT-116 human colon carcinoma cells; assay: Cytotoxicity (sulphorodamine B) on HCT-116 tumor cells; conditions: HCT-116 cells, 24 h treatment, then 48 h in drug-free medium, read-out: IC50 ± SD, HCT-116
Experimental: as §1, §2

[3] = system: NB4 human promyelocitic leukaemia; assay: Cytotoxicity (sulphorodamine B) on NB4 tumor cells; conditions: then 48 h in drug-free medium, read-out: IC50 ± SD, NB4
Experimental: To test the effects of the compounds on cell growth, NB4 human promyelocitic leukaemia, NCI-H460 non-small cell carcinoma cells and HCT-116 human colon carcinoma cells were used. NB4 and NCI-H460 tumor cells were grown RPMI 1640 containing 10% fetal bovine serum (GIBCO), whereas HCT-116 tumor cells were grown in McCoy's 5A containing 10% fetal bovine serum (GIBCO).
Tumor cells were seeded in 96-well tissue culture plates at approximately 10% confluence and were allowed to attach and recover for at least 24 h. […] The plates were incubated for 24 h at 37° C. At the end of the treatment, for NB4 tumor cells in suspension, the procedure was performed as follows: medium culture was removed by centrifugation of the plates at 1600×g for 10 min and the surnatant was removed. 250 μl PBS were added, then the plates were centrifuged at 1600×g for 10 min, the surnatant was removed. 200 μl/well of medium culture RPMI 1640 containing 10% FCS were added and the plates were incubated at 37° C. for other 48 h. The plates were centrifuged again at 1600×g for 10 min, the medium culture was removed and 200 μl PBS and 50 μl of cold 80% TCA were added. The plates were incubated on ice for at least 1 h. TCA was removed, the plates were washed 3 times for immersion in distilled-water and dried before on paper, then in a thermostater at 40° C. Subsequently 200 μl of 0.4% sulphorodamine B in 1% acetic acid were added. The plates were incubated at room temperature for other 30 min. Sulphorodamine B was removed, the plates were washed for immersion in 1% acetic acid for 3 times, then they were washed and dried on paper. 200 μl Tris 10 mM were added, the plates were kept under stirring for 20 min. The survival cell was determined as optical density by a Multiskan spectrofluorimeter at 540 nm. For the tumor cells in adhesion (NCI-H460 and HCT-116), the procedure was as above mentioned, except that the at the end of the treatment, the plates were washed by remotion of the surnatant and addition of PBS 3 times and not by centrifugation. Also the last day of the assay, the surnatant was removed without centrifugation.
as §2

[4] = system: NB4, NCI-H460 and HCT-116 tumor cells; assay: Cytotoxicity summarised over the three tumor cell lines; conditions: Homo sapiens; mean over NB4, NCI-H460, HCT-116; 24 h of treatment
Experimental: as §1, §2

[5] = Homo sapiens, NB-4, 24 h treatment

Row | Compound | IC50 ([1]; Homo sapiens) [nM] | IC50 ([2]; Homo sapiens) [nM] | IC50 [3, 5] [nM] | IC50 [4] [nM] | IC50 [1] [nM] | IC50 [2] [nM] | IC50 ([3]; 24 h treatment) [nM]
1 | O=C(CCCCC(O)C(=O)Nc1ccccc1)NO (racemic) [Compound 5a, (±)-2-Hydroxyheptanedioic acid 7-hydroxyamide 1-phenylamide] | 13700 ± 2600 | 8600 ± 200 | 3700 ± 600 | – | – | – | –
2 | COC(CCCCC(=O)NO)C(=O)Nc1ccccc1 (racemic) [Compound 5b, (±)-2-Methoxyheptanedioic acid 7-hydroxyamide 1-phenylamide] | 5700 ± 500 | 5000 ± 100 | 3500 ± 400 | – | – | – | –
3 | C=CCOC(CCCCC(=O)NO)C(=O)Nc1ccccc1 (racemic) [Compound 5c, (±)-2-Allyloxyheptanedioic acid 7-hydroxyamide 1-phenylamide] | 8600 ± 300 | 4300 ± 200 | 4500 ± 400 | – | – | – | –
4 | C=C(C)COC(CCCCC(=O)NO)C(=O)Nc1ccccc1 (racemic) [Compound 5d, (±)-2-(2-Methylallyloxy)heptanedioic acid 7-hydroxyamide 1-phenylamide] | 14700 ± 1600 | 12400 ± 200 | 9600 ± 800 | – | – | – | –
5 | CCCOC(CCCCC(=O)NO)C(=O)Nc1ccccc1 (racemic) [Compound 5e, (±)-2-Propoxyheptanedioic acid 7-hydroxyamide 1-phenylamide] | 10400 ± 1200 | 8500 ± 300 | 4100 ± 300 | – | – | – | –
6 | O=C(CCCCC(OCc1ccccc1)C(=O)Nc1ccccc1)NO (racemic) [Compound 5f, (±)-2-Benzyloxyheptanedioic acid 7-hydroxyamide 1-phenylamide] | 5500 ± 600 | 2400 ± 60 | > 5000 | – | – | – | –
7 | COc1ccc(COC(CCCCC(=O)NO)C(=O)Nc2ccccc2)cc1 (racemic) [Compound 5g, (±)-2-(4-Methoxybenzyloxy)heptanedioic acid 7-hydroxyamide 1-phenylamide] | 2000 ± 300 | 1300 ± 60 | 1000 ± 100 | – | – | – | –
8 | O=C(CCCCCC(O)C(=O)Nc1ccccc1)NO (racemic) [Compound 9a, (±)-2-Hydroxyoctanedioic acid 8-hydroxyamide 1-phenylamide] | 1000 ± 90 | 700 ± 20 | 500 ± 30 | < 1000 | – | – | –
9 | COC(CCCCCC(=O)NO)C(=O)Nc1ccccc1 (racemic) [Compound 9b, (±)-2-Methoxyoctanedioic acid 8-hydroxyamide 1-phenylamide] | 1200 ± 100 | 900 ± 40 | 500 ± 30 | < 1000 | – | – | –
10 | C=CCOC(CCCCCC(=O)NO)C(=O)Nc1ccccc1 (racemic) [Compound 9c, (±)-2-Allyloxyoctanedioic acid 8-hydroxyamide 1-phenylamide] | 1800 ± 100 | 1000 ± 100 | 400 ± 20 | – | – | – | –
11 | COc1ccc(COC(CCCCCC(=O)NO)C(=O)Nc2ccccc2)cc1 (racemic) [Compound 9d, (±)-2-(4-Methoxybenzyloxy)octanedioic acid 8-hydroxyamide 1-phenylamide] | 500 ± 20 | 200 ± 6 | 100 ± 10 | < 1000 | – | – | –
12 | O=C(CCCCCC(OCc1ccc(C(F)(F)F)cc1)C(=O)Nc1ccccc1)NO (racemic) [Compound 9e, (±)-2-(4-Trifluoromethylbenzyloxy)octanedioic acid 8-hydroxyamide 1-phenylamide] | 500 ± 60 | 400 ± 30 | 200 ± 2 | < 1000 | – | – | –
13 | O=C(CCCCCC(OCc1ccc(Br)cc1)C(=O)Nc1ccccc1)NO (racemic) [Compound 9f, (±)-2-(4-Bromobenzyloxy)octanedioic acid 8-hydroxyamide 1-phenylamide] | 500 ± 40 | 300 ± 50 | 60 ± 4 | < 1000 | – | – | –
14 | Cc1ccc(COC(CCCCCC(=O)NO)C(=O)Nc2ccccc2)cc1 (racemic) [Compound 9g, (±)-2-(4-Methylbenzyloxy)octanedioic acid 8-hydroxyamide 1-phenylamide] | 600 ± 10 | 300 ± 9 | 100 ± 10 | < 1000 | – | – | –
15 | COc1cccc(COC(CCCCCC(=O)NO)C(=O)Nc2ccccc2)c1 (racemic) [Compound 9h, (±)-2-(3-Methoxybenzyloxy)octanedioic acid 8-hydroxyamide 1-phenylamide] | 600 ± 30 | 600 ± 100 | 200 ± 7 | < 1000 | – | – | –
16 | COc1cccc(COC(CCCCCC(=O)NO)C(=O)N(Cc2cccc(OC)c2)c2ccccc2)c1 (racemic) [Compound 9i, (±)-2-(3-methoxybenzyloxy)octanedioic acid 8-hydroxyamide 1-[(3-methoxybenzyl)phenylamide]] | – | – | – | – | 7400 ± 500 | 7500 ± 400 | 4000 ± 700
17 | O=C(CCCCCCC(O)C(=O)Nc1ccccc1)NO (racemic) [Compound 13a, (±)-2-Hydroxynonanedioic acid 9-hydroxyamide 1-phenylamide] | 3600 ± 800 | 1600 ± 50 | 900 ± 100 | – | – | – | –
18 | COC(CCCCCCC(=O)NO)C(=O)Nc1ccccc1 (racemic) [Compound 13b, (±)-2-Methoxynonanedioic acid 9-hydroxyamide 1-phenylamide] | 1900 ± 100 | 1100 ± 9 | 800 ± 30 | – | – | – | –
19 | C=CCOC(CCCCCCC(=O)NO)C(=O)Nc1ccccc1 (racemic) [Compound 13c, (±)-2-Allyloxynonanedioic acid 9-hydroxyamide 1-phenylamide] | 1500 ± 300 | 1000 ± 50 | 600 ± 60 | – | – | – | –
20 | COc1cc2cc(c1)COc1ccccc1NC(=O)C(CCCCCC(=O)NO)OCC=C2 (racemic) [Compound 32, (±)-6-(19-Methoxy-11-oxo-3,13-dioxa-10-azatricyclo[15.3.1.04,9]henicosa-1(21),4(9),5,7,15,17,19-heptaen-12-yl)hexanoic acid hydroxyamide] | 900 ± 80 | 400 ± 30 | – | < 1000 | – | – | –
21 | O=C(CCCCCC1OCCCCCCOc2ccncc2NC1=O)NO (racemic) [Compound 46, (±)-6-(14-Oxo-6,7,8,9,10,11,14,15-octahydro-13H-5,12-dioxa-2,15-diazabenzocyclotridecen-13-yl)hexanoic acid hydroxyamide] | 20000 | 13000 ± 1700 | – | – | – | – | –
22 | CO[C@H](CCCCC(=O)NO)C(=O)Nc1ccccc1 [(R)-5b, 2-(R)-Methoxyheptanedioic acid 7-hydroxyamide 1-phenylamide] | 9600 ± 500 | 7800 ± 500 | 4000 ± 600 | – | – | – | –
23 | CO[C@@H](CCCCC(=O)NO)C(=O)Nc1ccccc1 [(S)-5b, 2-(S)-Methoxyheptanedioic acid 7-hydroxyamide 1-phenylamide] | 7800 ± 500 | 6800 ± 300 | 3500 ± 300 | – | – | – | –
24 | COc1ccc(CO[C@@H](CCCCCC(=O)NO)C(=O)Nc2ccccc2)cc1 [(S)-9d, 2-(S)-(4-Methoxybenzyloxy)octanedioic acid 8-hydroxyamide 1-phenylamide] | – | – | – | – | 400 ± 30 | 200 ± 7 | 100 ± 2
25 | O=C(CCCCC[C@@H]1NCCCCCCOc2ccccc2NC1=O)NO [(S)-42a, 6-(6-Oxo-5,6,7,8,9,10,11,12,13,14-decahydro-15-oxa-5,8-diazabenzocyclotridecen-7-(S)yl)hexanoic acid hydroxyamide hydrochloride] | 1100 ± 70 | 800 ± 70 | – | – | – | – | –
